Assays:
Assay type in all cases: cell-based
hURAT1 = target: T1, hURAT1 (Homo sapiens, UniProt Q96S37); test: Inhibition assay of uric acid transport in HEK293-hURAT1 transfection cell line; conditions: 500 nM, HEK293-hURAT1 transfection cell line, 14C-uric acid, average of three tests; for inhibition at 0.5 µM: read-out: Inhibitory rates of uric acid transport, ±SD (%)
T1 sequence (Q96S37 1-553): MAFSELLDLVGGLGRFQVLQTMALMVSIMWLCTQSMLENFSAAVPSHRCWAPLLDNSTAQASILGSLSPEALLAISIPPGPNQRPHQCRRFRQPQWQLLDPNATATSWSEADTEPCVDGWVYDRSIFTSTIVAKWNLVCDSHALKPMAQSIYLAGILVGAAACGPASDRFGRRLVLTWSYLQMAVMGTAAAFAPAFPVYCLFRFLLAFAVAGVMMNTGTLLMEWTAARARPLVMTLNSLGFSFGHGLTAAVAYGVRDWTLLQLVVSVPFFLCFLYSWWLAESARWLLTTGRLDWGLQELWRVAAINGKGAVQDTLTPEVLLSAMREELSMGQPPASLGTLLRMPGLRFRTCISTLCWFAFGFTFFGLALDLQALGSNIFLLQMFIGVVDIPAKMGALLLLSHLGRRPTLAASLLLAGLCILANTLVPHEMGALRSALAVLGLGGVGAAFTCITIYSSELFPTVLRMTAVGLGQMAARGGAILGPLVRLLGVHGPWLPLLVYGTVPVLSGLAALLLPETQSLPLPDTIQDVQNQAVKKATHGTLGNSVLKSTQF
Procedure: 2.1 Construction of a HEK293 stable cell line with high expression of hURAT1: The plasmid pCMV6-hURAT1 was transfected into HEK293 cells, then the stable strain was obtained by the G418 (final concentration 500 μg/mL) resistance screening, which is the high expression of hURAT1 transporter membrane protein.
2.2 To a coated 24-well plate was added 200 μL of 0.1 mg/mL poly-lysine per well and the plate was left overnight. Poly-lysine was removed from wells. The wells were cleaned thoroughly with aseptic water and dried for use.
2.3 To the above coated 24 well plate was added HEK293-hURAT1 stable cells (2×10^5 cells per well). The cells was cultured at 37° C. under 5% CO2 for 3 days.
The solution was fully mixed to give HBSS buffer (pH value: 7.4). The buffer was stored at −20° C.
2.5 The HBSS buffer was warmed to 37° C. in a water bath. Washed cells with HBSS twice, added 160 μL of HBSS and 20 μL test compound per well. The final concentration of tested compound per well is 500 nM. The blank control well contains only 180 μL of HBSS without tested compound. The plate was placed at room temperature for 30 min.
2.6 To each well was added 20 μL of 50 μM ^14C-Uric acid. The plate was placed at room temperature for 20 min.
2.7 The solution in each well was removed and the cells in each well were washed with pre-cooled HBSS buffer. To each well was added 0.2 M NaOH to dissolve the cells. The solution containing cell fragments was collected and the right amount of scintillation liquid was added.
The formula for calculating the inhibitory rate of uric acid transport for compounds was shown as below: […]

[1] = tested on: human normal liver cell line L-02; test: Cytotoxicity test on human normal liver cell line L-02 (Alamar Blue); conditions: L02, L-02 cells, 120 h incubation, cell viability, read-out: half inhibitory concentration (IC50) against L-02
Procedure: (§1) 2.1 The normal liver cell lines L-02 and WRL-68 were cultured with DMEM culture medium (containing 10% of fetal bovine serum, 100 U/mL of penicillin and 0.1 mg/mL of streptomycin) in an incubator under 5% CO2 at 37° C. until the cell density was about 90%, respectively.
(§2) 2.3 Tested compounds and benzbromarone at different concentration gradients were prepared by using the DMEM culture medium and added into wells at 100 μL/well as compounds wells. The DMEM culture medium was added into wells at 100 μL/well without tested compound as negative control wells.
(§3) This 10× Alamar Blue solution was diluted into 1× Alamar Blue solution with phenol red free DMEM culture medium before use.
(§4) 2.5 The cells were washed with PBS (0.1 M, pH=7.4) twice. The Alamar Blue solution was added into wells at 100 μL/well. 100 μL of Alamar Blue solution was added into wells without cells to serve as blank control wells. The 96-well plate was placed in an incubator under 5% CO2 at 37° C. for 3 h. Each concentration of compound was repeated three times during the test.
(§5) The fluorescence value of the cells containing compound is the F(test compound); the fluorescence value of the cells without compound as blank control is the F(blank control); the fluorescent value of the cells from negative control group is F(negative control). The average value and standard deviation of cell viability of three repeated concentrations was calculated by the following formula: […]
(§6) 2.7 The half inhibitory concentration (IC50) of the compound for the cells L-02 and WRL-68 was obtained from the cell viability by Prism Graph software.

[2] = tested on: human normal liver cell line WRL-68; test: Cytotoxicity test on human normal liver cell line WRL-68 (Alamar Blue); conditions: WRL68, WRL-68 cells, 120 h incubation, cell viability, read-out: half inhibitory concentration (IC50) against WRL-68
Procedure: as §1, §2, §3, §4, §5, §6

| SMILES | inhibition at 0.5 µM (hURAT1) [%] | IC50 [1] [µM] | IC50 [2] [µM] | Inhibitory rates of uric acid transport, ±SD (%) (hURAT1; 0.5 µM) | Inhibitory rates of uric acid transport, ±SD (%) (hURAT1) |
| --- | --- | --- | --- | --- | --- |
| CCc1nc2ccccn2c1C(=O)c1cc(Br)c(O)c(C#N)c1 [Compound 38, 3-bromo-5-(2-ethylimidazo[1,2-a]pyridine-3-carbonyl)-2-hydroxybenzonitrile] | 62.4 ± 0.72 |  |  |  |  |
| CCc1nc2cc(C)c(Br)cn2c1C(=O)c1cc(Br)c(O)c(Br)c1 [Compound 56, (6-bromo-2-ethyl-7-methylimidazo[1,2-a]pyridin-3-yl)-(3,5-dibromo-4-hydroxyphenyl)methanone] | 62.8 ± 9.34 | > 100 | > 100 |  |  |
| CCc1nc2ccccn2c1C(=O)c1cc(I)c(O)c(C#N)c1 [Compound 75, 5-(2-ethylimidazo[1,2-a]pyridine-3-carbonyl)-2-hydroxy-3-iodobenzonitrile hydrogen chloride] |  | > 100 | > 100 | 62.58 ± 0.84 |  |
| CCc1nc2ccccn2c1C(=O)c1cc(I)c(O)c(C#N)c1 [Compound 39, 5-(2-ethylimidazo[1,2-a]pyridine-3-carbonyl)-2-hydroxy-3-iodobenzonitrile] | 64.1 ± 2.25 |  |  |  |  |
| [2H]c1ccc2nc(CC)c(C(=O)c3cc(Br)c(O)c(Br)c3)n2c1 [Compound 69, (6-deuterium-2-ethylimidazo[1,2-a]pyridine-3-yl)(3,5-dibromo-4-hydroxyphenyl)methanone] |  |  |  |  | 71.10 ± 2.50 |
| CCc1nc2ccccn2c1C(=O)c1cc(Br)c(O)c(C(F)(F)F)c1 [Compound 29, (3-bromo-4-hydroxy-5-(trifluoromethyl)phenyl)-(2-ethylimidazo[1,2-a]pyridine-3-yl)methanone] | 64.35 ± 0.12 |  |  |  |  |
| CCc1nc2ccccn2c1C(=O)c1cc(I)c(O)c(I)c1 [Compound 5, (2-ethylimidazo[1,2-a]pyridine-3-yl)(4-hydroxy-3,5-diiodophenyl)methanone] | 63 ± 3.33 | > 100 | > 100 |  |  |
| CCc1nc2ccc(F)cn2c1C(=O)c1cc(Cl)c(O)c(I)c1 [Compound 19, (3-chloro-4-hydroxy-5-iodophenyl)(2-ethyl-6-fluoroimidazo[1,2-a]pyridine-3-yl)methanone] | 68.8 ± 2.83 |  |  |  |  |
| CCc1nc2ccccn2c1C(=O)c1cc(Br)c(O)c(Br)c1 [Compound 4, (3,5-dibromo-4-hydroxyphenyl)(2-ethylimidazo[1,2-a]-pyridin-3-yl)methanone] | 71.7 ± 1.84 | > 100 | > 100 |  |  |
| CCc1nc2ccccn2c1C(=O)c1cc(C)c(O)c(I)c1 [Compound 12, (2-ethylimidazo[1,2-a]pyridine-3-yl)(4-hydroxy-3-iodo-5-methylphenyl)methanone] | 56.24 ± 0.12 |  |  |  |  |
| CCCc1nc2ccccn2c1C(=O)c1cc(Br)c(O)c(Br)c1 [Compound 41, (3,5-dibromo-4-hydroxyphenyl)(2-propylimidazo[1,2-a]-pyridine-3-yl)methanone] | 55.5 ± 1.02 |  |  |  |  |
| CCc1nc2ccccn2c1C(=O)c1cc(Br)c(O)c(I)c1 [Compound 11, (3-bromo-4-hydroxy-5-iodophenyl)(2-ethylimidazo[1,2-a]-pyridine-3-yl)methanone] | 63.5 ± 0.95 |  |  |  |  |
| CCc1nc2ccc(O)cn2c1C(=O)c1cc(Br)c(O)c(Br)c1 [Compound 52, (3,5-dibromo-4-hydroxyphenyl)(2-ethyl-6-hydroxyimidazo-[1,2-a]pyridin-3-yl)methanone] | 57.5 ± 3.61 | > 100 | > 100 |  |  |
| CCc1nc2ccc(F)cn2c1C(=O)c1cc(F)c(O)c(I)c1 [Compound 51, (2-ethyl-6-fluoroimidazo[1,2-a]pyridin-3-yl)(3-fluoro-4-hydroxy-5-iodophenyl)methanone] | 61.3 ± 1.1 | > 100 | > 100 |  |  |
| CCc1nc2ccc(F)cn2c1C(=O)c1cc(Cl)c(O)c(Br)c1 [Compound 18, (3-bromo-5-chloro-4-hydroxyphenyl)(2-ethyl-6-fluoroimidazo[1,2-a]pyridine-3-yl)methanone] | 65.4 ± 0.71 | > 100 | > 100 |  |  |
| CCc1nc2ccccn2c1C(=O)c1cc(Cl)c(O)c(Br)c1 [Compound 45, (3-bromo-5-chloro-4-hydroxyphenyl)(2-ethylimidazo[1,2-a]-pyridin-3-yl)methanone] | 62.9 ± 3.34 | > 100 | > 100 |  |  |
| CCc1nc2ccc(C)cn2c1C(=O)c1cc(Br)c(O)c(Br)c1 [Compound 30, (3,5-dibromo-4-hydroxyphenyl)(2-ethyl-6-methylimidazo[1,2-a]pyridine-3-yl)methanone] | 68 ± 1.49 |  |  |  |  |
| CCc1nc2ccc(OC)cn2c1C(=O)c1cc(Br)c(O)c(Br)c1 [Compound 33, (3,5-dibromo-4-hydroxyphenyl)(2-ethyl-6-methoxyimidazo[1,2-a]pyridine-3-yl)methanone] | 65.06 ± 0.39 | > 100 | > 100 |  |  |
| CCc1nc2ccccn2c1C(=O)c1cc(Cl)c(O)c(I)c1 [Compound 9, (3-chloro-4-hydroxy-5-iodophenyl)(2-ethylimidazo[1,2-a]-pyridin-3-yl)methanone] | 60.6 ± 0.82 | > 100 | > 100 |  |  |

— US10399971B2, “Compound for treating or preventing hyperuricemia or gout” (JIANGSU ATOM BIOSCIENCE AND PHARMACEUTICAL CO., LTD., priority 2015, dated 2019)
